# Data as given in patent publication US7799821B2, “Therapeutic compounds” (Allergan, Inc., priority 2004, dated 2010).
# Read-outs that look alike come from different tables or passages of the source.
# How the values were obtained:
# human EP2 receptors = biological target: T1, human EP2 receptors (Homo sapiens, UniProt P43116); assay: Competition radioligand binding ([3H]PGE2), EP2; conditions: unit inferred; read-out: EP2 data Ki
# T1 construct: expressed in transfected cells; host or cells: HEK 293
# Protocol: Competition binding experiments were performed in a medium containing Hank's balanced salt solution, […], membranes (˜60 μg protein) or 2×10^5 cells from HEK 293 cells stably expressing human EP2 receptors, [^3H]PGE2 (10 nM) and various concentrations of test compounds in a total volume of 300 μl. Reaction mixtures were incubated at 23° C. for 60 min, and were filtered over Whatman GF/B filters under vacuum. Filters were washed three times with 5 ml ice-cold buffer containing 50 mM Tris/HCl (pH 7.3). Non-specific binding was estimated in the presence of excess unlabeled PGE2 (10 μM). Binding data fitted to the binding model for a single class of binding sites, using nonlinear regression analysis. IC50 values thus obtained were converted to Ki using the equation of Ki=(IC50/(1+[L]/KD) where [L] represents PGE2 concentration (10 nM) and KD the dissociation constant for [^3H]PGE2 at human EP2 receptors (40 nM).
# (§1) HEK-293 cells stably expressing the human or feline FP receptor, or EP1, EP2, or EP4 receptors were washed with TME buffer, scraped from the bottom of the flasks, and homogenized for 30 sec using a Brinkman PT 10/35 polytron. TME buffer was added to achieve a final 40 ml volume in the centrifuge tubes (the composition of TME is 100 mM TRIS base, 20 mM MgCl2, […]; 10N HCl is added to achieve a pH of 7.4).
# (§2) The cell homogenate was centrifuged at 19000 r.p.m. for 20 min at 4° C. using a Beckman Ti-60 rotor. The resultant pellet was resuspended in TME buffer to give a final 1 mg/ml protein concentration, as determined by Biorad assay. Radioligand binding competition assays vs. [^3H-]17 —phenyl PGF2α (5 nM) were performed in a 100 μl volume for 60 min. Binding reactions were started by adding plasma membrane fraction. The reaction was terminated by the addition of 4 ml ice-cold TRIS-HCl buffer and rapid filtration through glass fiber GF/B filters using a Brandel cell harvester. The filters were washed 3 times with ice-cold buffer and oven dried for one hour.
# (§3) [^3H-] PGE2 (specific activity 180 Ci mmol) was used as the radioligand for EP receptors. [^3H] 17-phenyl PGF2α was employed for FP receptor binding studies. Binding studies employing EP1, EP2, EP4 and FP receptors were performed in duplicate in at least three separate experiments. A 200 μl assay volume was used. Incubations were for 60 min at 25° C. and were terminated by the addition of 4 ml of ice-cold 50 mM TRIS-HCl, followed by rapid filtration through Whatman GF/B filters and three additional 4 ml washes in a cell harvester (Brandel). Competition studies were performed using a final concentration of 5 nM [^3H]—PGE2, or 5 nM [^3H] 17-phenyl PGF2α and non-specific binding determined with 10^−5M of unlabeled PGE2, or 17-phenyl PGF2α, according to receptor subtype studied.
# hDP/Gqs5 = biological target: T2, hDP/Gqs5 (Homo sapiens, UniProt Q13258); assay: FLIPR calcium signal, hDP; format: cell-based
# T2 construct: expressed in transfected cells; host or cells: HEK-293(EBNA)
# T2 sequence (Q13258 1-359): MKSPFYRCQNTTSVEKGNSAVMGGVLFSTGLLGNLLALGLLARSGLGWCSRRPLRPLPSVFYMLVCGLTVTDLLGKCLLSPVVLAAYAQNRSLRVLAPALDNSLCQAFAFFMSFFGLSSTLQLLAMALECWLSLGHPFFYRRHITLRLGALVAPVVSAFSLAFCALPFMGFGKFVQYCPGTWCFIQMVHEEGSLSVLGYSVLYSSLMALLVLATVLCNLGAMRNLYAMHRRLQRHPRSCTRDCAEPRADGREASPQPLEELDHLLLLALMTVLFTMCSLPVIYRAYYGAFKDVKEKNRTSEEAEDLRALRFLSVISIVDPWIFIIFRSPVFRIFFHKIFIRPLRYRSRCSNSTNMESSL
# Protocol: (§4) HEK-293(EBNA) cells, stably expressing one type or subtype of recombinant human prostaglandin receptors (prostaglandin receptors expressed: hDP/Gqs5; hEP1; hEP2/Gqs5; hEP3A/Gqi5; hEP4/Gqs5; hFP; hIP; hTP), were cultured in 100 mm culture dishes in high-glucose DMEM medium containing 10% fetal bovine serum, 2 mM 1-glutamine, 250 μg/ml geneticin (G418) and 200 μg/ml hygromycin B as selection markers, and 100 units/ml penicillin G, 100 μg/ml streptomycin and 0.25 μg/ml amphotericin B. • (b) Calcium Signal Studies on the FLIPR™
# (§5) Cells were seeded at a density of 5×10^4 cells per well in Biocoat® Poly-D-lysine-coated black-wall, clear-bottom 96-well plates (Becton-Dickinson) and allowed to attach overnight in an incubator at 37° C. Cells were then washed two times with HBSS-HEPES buffer (Hanks Balanced Salt Solution without bicarbonate and phenol red, 20 mM HEPES, pH 7.4) using a Denley Cellwash plate washer (Labsystems). After 45 minutes of dye-loading in the dark, using the calcium-sensitive dye Fluo-4 AM at a final concentration of 2 μM, plates were washed four times with HBSS-HEPES buffer to remove excess dye leaving 100 μl in each well. Plates were re-equilibrated to 37° C. for a few minutes.
# (§6) Cells were excited with an Argon laser at 488 nm, and emission was measured through a 510-570 nm bandwidth emission filter (FLIPR™, Molecular Devices, Sunnyvale, Calif.). Drug solution was added in a 50 μl volume to each well to give the desired final concentration. The peak increase in fluorescence intensity was recorded for each well. On each plate, four wells each served as negative (HBSS-HEPES buffer) and positive controls (standard agonists: BW245C (hDP); PGE2 (hEP1; hEP2/Gqs5; hEP3A/Gqi5; hEP4/Gqs5); PGF2α (hFP); carbacyclin (hIP); U-46619 (hTP), depending on receptor). The peak fluorescence change in each drug-containing well was then expressed relative to the controls.
# (§7) Compounds were tested in a high-throughput (HTS) or concentration-response (CoRe) format. In the HTS format, forty-four compounds per plate were examined in duplicates at a concentration of 10^−5 M. To generate concentration-response curves, four compounds per plate were tested in duplicates in a concentration range between 10^−5 and 10^−11 M. The duplicate values were averaged. In either, HTS or CoRe format each compound was tested on at least 3 separate plates using cells from different passages to give an n≧3.
# hEP4/Gqs5 = biological target: T3, hEP4/Gqs5 (Homo sapiens, UniProt P35408); assay: FLIPR calcium signal, hEP4; format: cell-based; conditions: unit inferred; read-out: EP4 data flipr EC50
# T3 construct: expressed in transfected cells; host or cells: HEK-293(EBNA)
# Protocol: as §4, §5, §6, §7
# EP4 receptors = biological target: T4, EP4 receptors (Homo sapiens, UniProt P35408); assay: Radioligand binding ([3H]PGE2), EP4; conditions: unit inferred; read-out: EP4 data KI
# T4 construct: expressed in transfected cells; host or cells: HEK-293
# Protocol: as §1, §2, §3
# hEP2/Gqs5 = biological target: T5, hEP2/Gqs5 (Homo sapiens, UniProt P43116); assay: FLIPR calcium signal, hEP2; format: cell-based
# T5 construct: expressed in transfected cells; host or cells: HEK-293(EBNA)
# How it was run: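 HEK-293(EBNA) cells stably expressing each human prostanoid receptor (EP2 and EP3A coupled via Gqs5/Gqi5 chimeras) were loaded with Fluo-4 AM, and peak calcium fluorescence was measured on FLIPR at 37° C. Compounds were tested at 10^−5 M or from 10^−11 to 10^−5 M in duplicate, n≥3, with response expressed relative to buffer and standard agonist controls.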
# [1] = biological target: T6, HEK-EBNA cells expressing a PG EP2 receptor subtype (Homo sapiens, UniProt P43116); assay: cAMP assay, EP2; format: cell-based; conditions: unit inferred; read-out: EP2 data cAMP EC50
# T6 construct: expressed in transfected cells; host or cells: HEK-EBNA
# Protocol: A 384-well drug plate was prepared to contain 6 test compounds, PGE2 and cAMP in 16 serial dilutions in triplicate, using a Biomek station. HEK-EBNA cells expressing a target PG receptor subtype (EP2 or EP4) were suspended in a stimulation buffer (HBSS, 0.1% BSA, 0.5 mM IBMX and 5 mM HEPES, pH 7.4) in a density of 10^4 cells/5 μl. The reaction was initiated by mixing 5 μL drug dilutions with 5 μl of HEK-EBNA cells in a well, carried out for 30 min at room temperature, and followed by the addition of 5 μl anti-cAMP acceptor beads in the control buffer with Tween-20 (25 mM NaCl, 0.03% Tween-20, 5 mM HEPES, pH7.4). After 30 min in the dark at room temperature, the mixtures were incubated with 15 μl biotinylated-cAMP/strepavidin donor beads in Lysis/Detection buffer (0.1% BSA, 0.3% Tween-20 and 5 mM HEPES, pH7.4) for 45 min at the room temperature. Fluorescence changes were read using a Fusion-alpha HT microplate reader.
# hTP = biological target: T7, hTP (Homo sapiens, UniProt P21731); assay: FLIPR calcium signal, hTP; format: cell-based
# T7 construct: expressed in transfected cells; host or cells: HEK-293(EBNA)
# T7 sequence (P21731 1-343): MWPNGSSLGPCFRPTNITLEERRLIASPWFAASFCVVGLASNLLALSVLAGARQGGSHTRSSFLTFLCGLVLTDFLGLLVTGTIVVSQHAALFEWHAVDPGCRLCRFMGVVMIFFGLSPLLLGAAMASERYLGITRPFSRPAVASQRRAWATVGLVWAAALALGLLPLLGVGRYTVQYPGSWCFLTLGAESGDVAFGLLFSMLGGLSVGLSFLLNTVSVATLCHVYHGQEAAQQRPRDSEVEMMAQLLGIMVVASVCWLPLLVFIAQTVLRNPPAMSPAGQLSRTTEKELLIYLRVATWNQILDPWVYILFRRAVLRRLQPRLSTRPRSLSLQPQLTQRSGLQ
# Protocol: as §4, §5, §6, §7
# hEP3A/Gqi5 = biological target: T8, hEP3A/Gqi5 (Homo sapiens, UniProt P43115); assay: FLIPR calcium signal, hEP3A; format: cell-based; conditions: read-out: Other Receptors EC50 hEP3A
# T8 construct: expressed in transfected cells; host or cells: HEK-293(EBNA)
# T8 sequence (P43115 1-390): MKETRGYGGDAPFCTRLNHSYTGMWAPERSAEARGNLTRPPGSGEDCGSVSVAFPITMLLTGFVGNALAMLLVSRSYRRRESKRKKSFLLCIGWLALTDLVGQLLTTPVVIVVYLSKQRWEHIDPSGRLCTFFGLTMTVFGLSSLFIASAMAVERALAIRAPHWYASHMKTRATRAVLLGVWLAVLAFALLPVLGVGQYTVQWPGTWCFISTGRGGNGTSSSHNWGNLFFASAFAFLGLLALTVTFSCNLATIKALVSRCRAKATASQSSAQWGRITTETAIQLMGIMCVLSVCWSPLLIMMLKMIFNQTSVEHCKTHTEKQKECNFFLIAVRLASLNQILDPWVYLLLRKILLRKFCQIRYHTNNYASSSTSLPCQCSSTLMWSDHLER
# Protocol: as §4, §5, §6, §7
# [2] = read-out: Other Receptors EC50 hDP
# [3] = unit inferred, other columns of the table in nM, read-out: EP2 data flipr EC50
# [4] = FLIPR Ca2+ signal, HEK-293(EBNA), read-out: FUNCTIONAL EC50 HTP
# [5] = FLIPR Ca2+ signal, HEK-293(EBNA), read-out: FUNCTIONAL EC50 HEP2
# T5 sequence (P43116 whole entry): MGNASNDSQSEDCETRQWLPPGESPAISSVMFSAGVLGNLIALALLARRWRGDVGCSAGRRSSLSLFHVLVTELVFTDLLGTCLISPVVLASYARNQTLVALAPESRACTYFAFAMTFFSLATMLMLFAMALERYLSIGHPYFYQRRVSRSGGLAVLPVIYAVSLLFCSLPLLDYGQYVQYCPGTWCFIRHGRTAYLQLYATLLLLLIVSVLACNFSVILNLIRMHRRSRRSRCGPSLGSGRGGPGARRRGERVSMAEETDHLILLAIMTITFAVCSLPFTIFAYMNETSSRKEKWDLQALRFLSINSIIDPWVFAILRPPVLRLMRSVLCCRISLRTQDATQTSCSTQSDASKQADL
# T6 sequence (P43116 whole entry): as above
# T1 sequence (P43116 whole entry): as above
# T4 sequence (P35408 whole entry): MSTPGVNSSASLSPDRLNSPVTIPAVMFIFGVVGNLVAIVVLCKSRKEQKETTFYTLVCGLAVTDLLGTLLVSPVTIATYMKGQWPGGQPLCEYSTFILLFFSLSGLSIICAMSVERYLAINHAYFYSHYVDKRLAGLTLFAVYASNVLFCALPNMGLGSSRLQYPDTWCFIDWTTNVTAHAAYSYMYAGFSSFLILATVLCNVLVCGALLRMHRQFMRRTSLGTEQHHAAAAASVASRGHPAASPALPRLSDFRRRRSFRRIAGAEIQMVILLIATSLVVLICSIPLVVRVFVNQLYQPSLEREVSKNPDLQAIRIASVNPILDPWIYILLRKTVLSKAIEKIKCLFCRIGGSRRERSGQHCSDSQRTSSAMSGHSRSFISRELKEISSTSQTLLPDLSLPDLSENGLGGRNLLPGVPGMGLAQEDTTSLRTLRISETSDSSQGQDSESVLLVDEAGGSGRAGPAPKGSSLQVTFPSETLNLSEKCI
# T3 sequence (P35408 whole entry): as above
SMILES,Ki (human EP2 receptors),EC50 (hDP/Gqs5; [2]),EC50 (hEP4/Gqs5),Ki (EP4 receptors),EC50 (hEP2/Gqs5; [3]),EC50 (hTP; [4]),other results
CCCCCC(O)c1ccc(N2C(=O)CC[C@@H]2COCc2ccc(C(=O)O)s2)cc1 (some centres unmarked),115 nM,3230 nM,> 10000 nM,> 10000 nM,8 nM,–,–
CCCCCCC(O)c1ccc(N2C(=O)CC[C@@H]2COCc2ccc(C(=O)O)s2)cc1 (some centres unmarked) [drawing 169],190 nM,5760 nM,–,> 10000 nM,20 nM,–,EC50 [1]: 1.5 nM
O=C(O)CCCCCC[C@@H]1[C@@H](c2ccc(C3(O)CCC3)cc2)[C@H](O)C[C@H]1Cl,–,–,–,–,–,> 10000 nM,EC50 (hEP2/Gqs5; [5]): 743 nM
O=C(O)CCCCCC[C@H]1C(=O)C[C@@H](O)[C@@H]1c1ccc2c(c1)CCC2O (some centres unmarked),–,–,–,–,–,> 10000 nM,–
CCCC1(C(O)c2ccc([C@H]3[C@H](O)CC(=O)[C@@H]3C/C=C\CCCC(=O)OC)cc2)CCC1 (some centres unmarked),–,–,–,–,–,> 10000 nM,–
CCCCCCC(O)c1ccc(N2C(=O)CC[C@@H]2CCCc2ccc(C(=O)O)s2)cc1 (some centres unmarked) [drawing 154],–,105 nM,> 10000 nM,–,30 nM,–,EC50 (hEP3A/Gqi5): 47 nM
COC(=O)CCC/C=C\C[C@H]1C(=O)C[C@@H](O)[C@@H]1c1ccc(C(C)(C)C)cc1,–,–,–,–,–,> 10000 nM,EC50 (hEP2/Gqs5; [5]): > 10000 nM
CCC(O)c1ccc(N2C(=O)CC[C@@H]2COCc2ccc(C(=O)O)s2)cc1 (some centres unmarked),5730 nM,7560 nM,> 10000 nM,> 10000 nM,1810 nM,–,EC50 [1]: 312 nM
CCCC1([C@@H](O)c2cccc([C@H]3CCC(=O)[C@@H]3C/C=C\CCCC(=O)OC)c2)CCC1,–,–,–,–,–,–,EC50 (hTP; read-out: FUNCTIONAL Ca2+ EC50 HTP): > 10000 nM
CCCCCCC(O)c1ccc(N2C(=O)CC[C@@H]2CCCc2ccc(C(=O)O)s2)cc1 (some centres unmarked) [drawing 182],–,105 nM,> 10000 nM,–,30 nM,–,EC50 (hEP3A/Gqi5): 47 nM
CCCCCCC(O)c1ccc(N2C(=O)CC[C@@H]2COCc2ccc(C(=O)O)s2)cc1 (some centres unmarked) [drawing 141],190 nM,5760 nM,–,> 10000 nM,20 nM,–,EC50 [1]: 1.5 nM
O=C(O)CCCCCC[C@@H]1[C@@H](c2ccc(CC3CCCCC3)cc2)[C@H](O)C[C@H]1Cl,–,–,–,–,–,–,"EC50 (hDP/Gqs5; FLIPR Ca2+ signal, HEK-293(EBNA), read-out: FUNCTIONAL EC50 HDP): > 10000 nM; EC50 (hEP2/Gqs5; [5]): 3440 nM"
